Reference: patent publication US12252524B2, “GIP/GLP1 co-agonist compounds” (Eli Lilly and Company, priority 2018, dated 2025)
Numbered stars: 1 amine (or outer) side, 2 acyl side, 3 side chain; on linkers, the order of the positions; unused ones are H or OH. Square brackets hold non-standard residues; d marks the D form. Side chains are listed from the residue outwards. Peptide text beside a SMILES is read from it. * marks the point of attachment. C20 diacid = O=C(O)CCCCCCCCCCCCCCCCCCC(=O)*; γGlu = O=C(O)[C@H](CCC(=O)[*:2])N[*:1]; AEEA = NCCOCCOCC(=O)O; Aib = CC(C)(N)C(=O)O

Legend:
human Gcg receptor = molecular target: T1, human Gcg receptor (Homo sapiens, UniProt P47871); assay: [125I]-Glucagon binding (SPA), human Gcg receptor; conditions: read-out: hGLcgR Ki, nM (SEM, n)
T1 construct: expressed in transfected cells; crude membranes
Procedure, shortened: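 Scintillation counts are taken after membranes and WGA beads incubate and settle for 12 hours at room temperature. Buffer is 25 mM HEPES, pH 7.4, with CaCl2, MgCl2, bacitracin and Tween-20. Ki values, from four-parameter IC50 fits, are geometric means over independent days.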

human GIP receptor = molecular target: T2, human GIP receptor (Homo sapiens, UniProt P48546); assay: [125I]-GIP binding (SPA), human GIP receptor; conditions: read-out: hGIPR Ki, nM (SEM, n)
T2 construct: expressed in transfected cells; crude membranes
T2 sequence (P48546 22-466): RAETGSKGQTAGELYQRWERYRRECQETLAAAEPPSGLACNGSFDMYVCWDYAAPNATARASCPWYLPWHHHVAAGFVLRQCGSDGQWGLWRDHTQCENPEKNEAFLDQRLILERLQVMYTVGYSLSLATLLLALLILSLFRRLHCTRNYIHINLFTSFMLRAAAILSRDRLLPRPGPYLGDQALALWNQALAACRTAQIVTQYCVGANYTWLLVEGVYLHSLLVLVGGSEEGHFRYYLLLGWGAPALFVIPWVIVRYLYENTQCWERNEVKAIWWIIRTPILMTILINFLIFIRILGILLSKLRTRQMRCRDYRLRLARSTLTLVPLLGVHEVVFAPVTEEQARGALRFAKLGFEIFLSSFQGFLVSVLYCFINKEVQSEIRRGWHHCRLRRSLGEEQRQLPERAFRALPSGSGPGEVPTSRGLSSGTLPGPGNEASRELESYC

[1] = molecular target: human GLP-1 receptor (GLP-1R) (Homo sapiens, UniProt P43220); assay: cAMP pharmacological functional assay in presence of casein, hGLP-1R; format: cell-based; conditions: HEK293 cells expressing hGLP-1R, 0.1% Casein, geometric mean; read-out: hGLP1R cAMP Rel EC50 nM (SEM, n)
[2] = molecular target: T3, gastric inhibitory peptide receptor (GIPR) (Homo sapiens, UniProt P48546); assay: cAMP pharmacological functional assay in presence of casein, hGIPR; format: cell-based; conditions: HEK293 cells expressing hGIPR, 0.1% Casein, geometric mean; read-out: hGIPR cAMP Rel EC50 nM (SEM, n)
T3 sequence (P48546 22-466): T2 sequence (P48546 22-466)

human GLP-1R = human GLP-1R (Homo sapiens, UniProt P43220); assay: [125I]-GLP-1 binding (SPA), human GLP-1 receptor; set-up: expressed in transfected cells; crude membranes; conditions: read-out: hGLP1R Ki, (nM) (SEM, n)
Procedure, shortened: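 Ki values are geometric means with SEM over independent replicates on different days, derived from IC50s fitted by four-parameter nonlinear regression. The assay used crude cell membranes in HEPES buffer, pH 7.4, containing CaCl2, MgCl2, bacitracin and TWEEN-20.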

T1 sequence (P47871 26-477): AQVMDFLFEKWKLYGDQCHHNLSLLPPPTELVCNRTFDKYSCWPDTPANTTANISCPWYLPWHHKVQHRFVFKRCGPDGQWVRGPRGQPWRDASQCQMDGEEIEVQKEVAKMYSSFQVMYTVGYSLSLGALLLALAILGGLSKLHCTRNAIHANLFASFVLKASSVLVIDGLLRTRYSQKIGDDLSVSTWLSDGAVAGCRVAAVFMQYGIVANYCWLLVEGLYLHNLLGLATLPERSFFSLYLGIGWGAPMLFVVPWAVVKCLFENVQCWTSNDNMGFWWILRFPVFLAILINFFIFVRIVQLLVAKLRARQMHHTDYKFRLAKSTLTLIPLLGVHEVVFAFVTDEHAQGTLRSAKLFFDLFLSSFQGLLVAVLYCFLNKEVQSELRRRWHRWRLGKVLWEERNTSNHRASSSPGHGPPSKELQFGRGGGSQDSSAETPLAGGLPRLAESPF
Chain of human GLP-1 receptor (GLP-1R) (P43220 24-463): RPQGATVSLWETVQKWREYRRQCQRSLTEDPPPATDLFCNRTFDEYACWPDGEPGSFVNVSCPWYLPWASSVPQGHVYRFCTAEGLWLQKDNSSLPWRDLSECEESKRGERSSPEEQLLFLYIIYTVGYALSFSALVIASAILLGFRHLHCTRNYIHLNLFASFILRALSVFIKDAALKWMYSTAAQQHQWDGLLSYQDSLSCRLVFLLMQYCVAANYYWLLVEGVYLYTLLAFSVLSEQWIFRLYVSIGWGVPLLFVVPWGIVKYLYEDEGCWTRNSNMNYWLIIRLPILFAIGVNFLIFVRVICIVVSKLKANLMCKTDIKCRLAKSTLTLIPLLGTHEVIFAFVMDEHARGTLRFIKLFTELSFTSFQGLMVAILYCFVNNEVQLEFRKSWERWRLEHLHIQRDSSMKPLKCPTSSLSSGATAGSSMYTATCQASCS
Chain of human GLP-1R (P43220 24-463): as above

SMILES	Ki (human Gcg receptor)	Ki (human GIP receptor)	EC50 [1]	EC50 [2]	Ki (human GLP-1R)
CC[C@H](C)[C@H](NC(=O)[C@H](CCCCN)NC(=O)[C@H](CC(=O)O)NC(=O)[C@H](CC(C)C)NC(=O)[C@H](CC(C)C)NC(=O)[C@@H](NC(=O)[C@H](CO)NC(=O)[C@H](Cc1ccc(O)cc1)NC(=O)[C@H](CC(=O)O)NC(=O)[C@H](CO)NC(=O)[C@@H](NC(=O)[C@H](Cc1ccccc1)NC(=O)[C@@H](NC(=O)CNC(=O)[C@H](CCC(=O)O)NC(=O)C(C)(C)NC(=O)[C@@H](N)Cc1ccc(O)cc1)[C@@H](C)O)[C@@H](C)O)[C@@H](C)CC)C(=O)N[C@@H](C)C(=O)N[C@@H](CCC(N)=O)C(=O)NC(C)(C)C(=O)N[C@@H](C)C(=O)N[C@@H](Cc1ccccc1)C(=O)N[C@H](C(=O)N[C@@H](CCC(=O)O)C(=O)N[C@@H](Cc1ccc(O)cc1)C(=O)N[C@@H](CCCCNC(=O)COCCOCCNC(=O)COCCOCCNC(=O)CC[C@H](NC(=O)CCCCCCCCCCCCCCCCCCC(=O)O)C(=O)O)C(=O)N[C@H](C(=O)N[C@@H](CCC(=O)O)C(=O)NCC(=O)NCC(=O)N1CCC[C@H]1C(=O)N[C@@H](CO)C(=O)N[C@@H](CO)C(=O)NCC(=O)N[C@@H](C)C(=O)N1CCC[C@H]1C(=O)N1CCC[C@H]1C(=O)N1CCC[C@H]1C(=O)N[C@@H](CO)C(N)=O)[C@@H](C)CC)[C@@H](C)CC [Example 35] (H-Y[Aib]EGTFTSDYSILLDKIAQ[Aib]AFIEYK([AEEA-AEEA-γGlu-C20 diacid])IEGGPSSGAPPPS-NH2)	> 964 nM	0.0358 nM	8.38 nM	0.0905 nM	54.6 nM
CC[C@H](C)[C@H](NC(=O)[C@H](CCCCN)NC(=O)[C@H](CC(=O)O)NC(=O)[C@H](CC(C)C)NC(=O)[C@H](CC(C)C)NC(=O)[C@@H](NC(=O)[C@H](CO)NC(=O)[C@H](Cc1ccc(O)cc1)NC(=O)[C@H](CC(=O)O)NC(=O)[C@H](CO)NC(=O)[C@@H](NC(=O)[C@H](Cc1ccccc1)NC(=O)[C@@H](NC(=O)CNC(=O)[C@H](CCC(=O)O)NC(=O)C(C)(C)NC(=O)[C@@H](N)Cc1ccc(O)cc1)[C@@H](C)O)[C@@H](C)O)[C@@H](C)CC)C(=O)N[C@@H](C)C(=O)N[C@@H](CCC(N)=O)C(=O)NC(C)(C)C(=O)N[C@@H](C)C(=O)N[C@@H](Cc1ccccc1)C(=O)N[C@H](C(=O)N[C@@H](CCC(=O)O)C(=O)N[C@@H](Cc1ccc(O)cc1)C(=O)N[C@@H](CC(C)C)C(=O)N[C@@H](CCCCNC(=O)COCCOCCNC(=O)COCCOCCNC(=O)CC[C@H](NC(=O)CCCCCCCCCCCCCCCCCCC(=O)O)C(=O)O)C(=O)N[C@@H](CCC(=O)O)C(=O)NCC(=O)NCC(=O)N1CCC[C@H]1C(=O)N[C@@H](CO)C(=O)N[C@@H](CO)C(=O)NCC(=O)N[C@@H](C)C(=O)N1CCC[C@H]1C(=O)N1CCC[C@H]1C(=O)N1CCC[C@H]1C(=O)N[C@@H](CO)C(N)=O)[C@@H](C)CC [Example 36] (H-Y[Aib]EGTFTSDYSILLDKIAQ[Aib]AFIEYLK([AEEA-AEEA-γGlu-C20 diacid])EGGPSSGAPPPS-NH2)	413 nM	0.141 nM	2.29 nM	0.309 nM	16.4 nM
CC[C@H](C)[C@H](NC(=O)[C@H](CCCCN)NC(=O)[C@H](CC(=O)O)NC(=O)[C@H](CC(C)C)NC(=O)[C@H](CC(C)C)NC(=O)[C@@H](NC(=O)[C@H](CO)NC(=O)[C@H](Cc1ccc(O)cc1)NC(=O)[C@H](CC(=O)O)NC(=O)[C@H](CO)NC(=O)[C@@H](NC(=O)[C@H](Cc1ccccc1)NC(=O)[C@@H](NC(=O)CNC(=O)[C@H](CCC(=O)O)NC(=O)C(C)(C)NC(=O)[C@@H](N)Cc1ccc(O)cc1)[C@@H](C)O)[C@@H](C)O)[C@@H](C)CC)C(=O)N[C@@H](C)C(=O)N[C@@H](CCC(N)=O)C(=O)NC(C)(C)C(=O)N[C@@H](C)C(=O)N[C@@H](Cc1ccccc1)C(=O)N[C@H](C(=O)N[C@@H](CCC(=O)O)C(=O)N[C@@H](Cc1ccc(O)cc1)C(=O)N[C@@H](CC(C)C)C(=O)N[C@H](C(=O)N[C@@H](CCCCNC(=O)COCCOCCNC(=O)COCCOCCNC(=O)CC[C@H](NC(=O)CCCCCCCCCCCCCCCCCCC(=O)O)C(=O)O)C(=O)NCC(=O)NCC(=O)N1CCC[C@H]1C(=O)N[C@@H](CO)C(=O)N[C@@H](CO)C(=O)NCC(=O)N[C@@H](C)C(=O)N1CCC[C@H]1C(=O)N1CCC[C@H]1C(=O)N1CCC[C@H]1C(=O)N[C@@H](CO)C(N)=O)[C@@H](C)CC)[C@@H](C)CC [Example 37] (H-Y[Aib]EGTFTSDYSILLDKIAQ[Aib]AFIEYLIK([AEEA-AEEA-γGlu-C20 diacid])GGPSSGAPPPS-NH2)	255 nM	0.0523 nM	1.15 nM	0.269 nM	3.84 nM
CC[C@H](C)[C@H](NC(=O)[C@H](CCCCN)NC(=O)[C@H](CC(=O)O)NC(=O)[C@H](CC(C)C)NC(=O)[C@H](CC(C)C)NC(=O)[C@@H](NC(=O)[C@H](CO)NC(=O)[C@H](Cc1ccc(O)cc1)NC(=O)[C@H](CC(=O)O)NC(=O)[C@H](CO)NC(=O)[C@@H](NC(=O)[C@H](Cc1ccccc1)NC(=O)[C@@H](NC(=O)CNC(=O)[C@H](CCC(=O)O)NC(=O)C(C)(C)NC(=O)[C@@H](N)Cc1ccc(O)cc1)[C@@H](C)O)[C@@H](C)O)[C@@H](C)CC)C(=O)N[C@@H](C)C(=O)N[C@@H](CCC(N)=O)C(=O)NC(C)(C)C(=O)N[C@@H](C)C(=O)N[C@@H](Cc1ccccc1)C(=O)N[C@H](C(=O)N[C@@H](CCC(=O)O)C(=O)N[C@@H](Cc1ccc(O)cc1)C(=O)N[C@@H](CC(C)C)C(=O)N[C@H](C(=O)N[C@@H](CCC(=O)O)C(=O)N[C@@H](CCCCNC(=O)COCCOCCNC(=O)COCCOCCNC(=O)CC[C@H](NC(=O)CCCCCCCCCCCCCCCCCCC(=O)O)C(=O)O)C(=O)NCC(=O)N1CCC[C@H]1C(=O)N[C@@H](CO)C(=O)N[C@@H](CO)C(=O)NCC(=O)N[C@@H](C)C(=O)N1CCC[C@H]1C(=O)N1CCC[C@H]1C(=O)N1CCC[C@H]1C(=O)N[C@@H](CO)C(N)=O)[C@@H](C)CC)[C@@H](C)CC [Example 38] (H-Y[Aib]EGTFTSDYSILLDKIAQ[Aib]AFIEYLIEK([AEEA-AEEA-γGlu-C20 diacid])GPSSGAPPPS-NH2)	> 974 nM	0.104 nM	2.82 nM	0.147 nM	31.3 nM
CC[C@H](C)[C@H](NC(=O)[C@H](CCCCN)NC(=O)[C@H](CC(=O)O)NC(=O)[C@H](CC(C)C)NC(=O)[C@H](CC(C)C)NC(=O)[C@@H](NC(=O)[C@H](CO)NC(=O)[C@H](Cc1ccc(O)cc1)NC(=O)[C@H](CC(=O)O)NC(=O)[C@H](CO)NC(=O)[C@@H](NC(=O)[C@H](Cc1ccccc1)NC(=O)[C@@H](NC(=O)CNC(=O)[C@H](CCC(=O)O)NC(=O)C(C)(C)NC(=O)[C@@H](N)Cc1ccc(O)cc1)[C@@H](C)O)[C@@H](C)O)[C@@H](C)CC)C(=O)N[C@@H](C)C(=O)N[C@@H](CCC(N)=O)C(=O)NC(C)(C)C(=O)N[C@@H](C)C(=O)N[C@@H](Cc1ccccc1)C(=O)N[C@H](C(=O)N[C@@H](CCC(=O)O)C(=O)N[C@@H](Cc1ccc(O)cc1)C(=O)N[C@@H](CC(C)C)C(=O)N[C@H](C(=O)N[C@@H](CCC(=O)O)C(=O)NCC(=O)N[C@@H](CCCCNC(=O)COCCOCCNC(=O)COCCOCCNC(=O)CC[C@H](NC(=O)CCCCCCCCCCCCCCCCCCC(=O)O)C(=O)O)C(=O)N1CCC[C@H]1C(=O)N[C@@H](CO)C(=O)N[C@@H](CO)C(=O)NCC(=O)N[C@@H](C)C(=O)N1CCC[C@H]1C(=O)N1CCC[C@H]1C(=O)N1CCC[C@H]1C(=O)N[C@@H](CO)C(N)=O)[C@@H](C)CC)[C@@H](C)CC [Example 39] (H-Y[Aib]EGTFTSDYSILLDKIAQ[Aib]AFIEYLIEGK([AEEA-AEEA-γGlu-C20 diacid])PSSGAPPPS-NH2)	161 nM	0.0499 nM	1.92 nM	0.133 nM	16.8 nM
